According to patent US12139472B2, “Inhibitors of advanced glycation end products” (priority 2019, dated 2024):
“And” between values parts separate entries of the source, which are not always exact repeats. Equal values may be shown once.

What was measured:
[1] = Pharmacokinetic study for PTG-630 (IV and PO): plasma, whole blood, tissues, urine; type: in vivo, Sprague Dawley rats; conditions: for PTG-4997 (metabolite) concentration: Table 2, for PTG-4997 (metabolite) after PTG-630 PO 100 mg/kg
Procedure: The samples were analyzed in two batches with standards and QCs prepared on rat plasma and rat urine. Analyst® 1.6 (SCIEX) software was used for statistical analysis of bioanalytical data. […] Dose samples collected at 0.083 h-6 h postdose were diluted 4 times with SD rat plasma prior to plating. Twenty-four (24) hours plasma samples were assayed without dilution. […] Two sciatic nerve samples were excluded from analysis, due to the insufficient sample size. […] The 12 non-cannulated animals were arbitrarily assigned to groups upon arrival and housed together throughout the experiment. The animals were acclimated to their designated housing for at least 24 hours before the first day of dosing. […] Blood samples were collected via cannula from IV dosed rats or by cardiac stick from PO dosed rats at the specified time points for sampling pharmacokinetics. Blood was collected into K2EDTA tubes. Tubes were mixed gently after blood collection, chilled and centrifuged at 3000 rpm, 4° C. within 30 minutes upon collection. The samples were centrifuged at 4° C. and the resultant plasma separated. […] Urine from Group 1 was collected via polycarbonate tubes from rats placed in drug metabolism cages. Urine was maintained and room temperature through the collection period.

CYP3A = type: in vitro ADME, human; conditions: HLM
Source text: Compound 5 (PTG-630 free base) and 7 additional compounds for CYP3A P450 inhibition.
Imidazole (and benzimidazole) containing drugs are ubiquitous in pharmacological practice; however, drug-drug interactions (DDI) have been observed with some imidazole-containing classes, such as the antifungal azoles typified by ketoconazole. It is believed that the imidazole moiety accounts for their ability to inhibit CYP3A, the major DDI enzyme that metabolizes up to 50% of common drugs. The compounds of the disclosure incorporate an imidazole moiety attached to a pyridine ring via the imidazole C-2. They all share an imidazo-hydroxypyridine theme that can bind redox metal ions, while differing in the nature of the X side-chain. The potential of the compounds of the disclosure for DDI was evaluated by screening their inhibition of CYP3A.
Two studies were conducted in human liver microsomes (HLM). Lead candidate PTG-630 was tested using the Eurofins G232 panel (Drug Metab Dispos. 2001 January; 29(1):23-9), where inhibition was measured against seven CYP enzymes; CYP3A4 was tested using two different substrates, midazolam and testosterone. In a second study, inhibition of CYP3A4 (midazolam substrate only) was compared for 8 compounds of interest. The test protocol involved one-point measurements in duplicate, where inhibition was measured at a fixed 10 μM concentration of candidate inhibitors. In all cases, the substrate for each CYP enzyme was at a concentration equal to its specific Km value that was independently obtained from an 8-point dose-response study. Based on the observed value for percent inhibition for each test compound, we calculated of an IC50 assuming a competitive mode of inhibition. If percent inhibition for an inhibitor at a concentration of [I] is denoted by P, then: IC50=[I]*(100−P)/P In the single-point assay, [I] is 10 μM. If measured inhibition is 10%, then IC50=10*(100-10)/10=90 μM. […] As discussed in Lin et al. (J Pharm Sci. 2007 September; 96(9):2485-93; doi: 10.1002/jps.20884), CYP inhibition is broadly interpreted as being “potent” if IC50<1 μM, “moderate” if 1 μM<IC50<10 μM, and “weak” if IC50>10 μM.

Cc1ncc(CO)c(-c2ncc[nH]2)c1O [PTG-4997]
PTG-4997 (metabolite) concentration ([1]; muscle, 2 h postdose, Mean): <BLQ
PTG-4997 (metabolite) concentration ([1]; muscle, 2 h postdose, individual animals): <BLQ
PTG-4997 (metabolite) concentration ([1]; muscle, 4 h postdose, Mean): 54 ng/mL
PTG-4997 (metabolite) concentration ([1]; muscle, 4 h postdose, individual animals, 100 mg/kg): 108 ng/mL and <BLQ
PTG-4997 (metabolite) concentration ([1]; muscle, 6 h postdose, Mean): 127.5 ng/mL
PTG-4997 (metabolite) concentration ([1]; muscle, 6 h postdose, individual animals, 100 mg/kg): 108 ng/mL and 147 ng/mL
PTG-4997 (metabolite) concentration ([1]; muscle, 24 h postdose, Mean): <BLQ
PTG-4997 (metabolite) concentration ([1]; muscle, 24 h postdose, individual animals): <BLQ
PTG-4997 (metabolite) concentration ([1]; plasma, 0.5 h postdose, Mean): <BLQ
PTG-4997 (metabolite) concentration ([1]; plasma, 0.5 h postdose, individual animals): <BLQ
PTG-4997 (metabolite) concentration ([1]; plasma, 1 h postdose, Mean): <BLQ
PTG-4997 (metabolite) concentration ([1]; plasma, 1 h postdose, individual animals): <BLQ
PTG-4997 (metabolite) concentration ([1]; plasma, 2 h postdose, Mean): <BLQ
PTG-4997 (metabolite) concentration ([1]; plasma, 2 h postdose, individual animals): <BLQ
PTG-4997 (metabolite) concentration ([1]; plasma, 4 h postdose, Mean): <BLQ
PTG-4997 (metabolite) concentration ([1]; plasma, 4 h postdose, individual animals): <BLQ
PTG-4997 (metabolite) concentration ([1]; plasma, 6 h postdose, Mean): <BLQ
PTG-4997 (metabolite) concentration ([1]; plasma, 6 h postdose, individual animals): <BLQ
PTG-4997 (metabolite) concentration ([1]; plasma, 24 h postdose, Mean): <BLQ
PTG-4997 (metabolite) concentration ([1]; plasma, 24 h postdose, individual animals): <BLQ
PTG-4997 (metabolite) concentration ([1]; sciatic nerve, 0.5 h postdose, Mean): <BLQ
PTG-4997 (metabolite) concentration ([1]; sciatic nerve, 0.5 h postdose, individual animals): <BLQ
PTG-4997 (metabolite) concentration ([1]; sciatic nerve, 1 h postdose, Mean): <BLQ
PTG-4997 (metabolite) concentration ([1]; sciatic nerve, 1 h postdose, individual animals): <BLQ
PTG-4997 (metabolite) concentration ([1]; sciatic nerve, 2 h postdose, Mean): <BLQ
PTG-4997 (metabolite) concentration ([1]; sciatic nerve, 2 h postdose, individual animals): <BLQ
PTG-4997 (metabolite) concentration ([1]; sciatic nerve, 4 h postdose, Mean): <BLQ
PTG-4997 (metabolite) concentration ([1]; sciatic nerve, 4 h postdose, individual animals): <BLQ
PTG-4997 (metabolite) concentration ([1]; sciatic nerve, 6 h postdose, Mean): <BLQ
PTG-4997 (metabolite) concentration ([1]; sciatic nerve, 6 h postdose, individual animals): <BLQ
PTG-4997 (metabolite) concentration ([1]; sciatic nerve, 24 h postdose, Mean): <BLQ
PTG-4997 (metabolite) concentration ([1]; sciatic nerve, 24 h postdose, individual animals): <BLQ
AUC last in kidney, times lower than PTG-630 in kidneys ([1]; after PTG-630 PO): 3 times
detection in plasma following IV dosing ([1]; metabolite PTG-4997 after PTG-630 IV): only detected in the plasma of single animal
presence in kidney ([1]; metabolite PTG-4997 after PTG-630 PO): present in steady level for 24 hours
presence in muscle samples ([1]; metabolite PTG-4997 after PTG-630 PO, 4-6 hours postdose): intermittently present
detection in plasma following PO administration ([1]; metabolite PTG-4997 after PTG-630 PO, any timepoint): not detectable
presence in liver samples ([1]; metabolite PTG-4997 after PTG-630 PO, any timepoint through 24 hours postdose): undetectable
average amount recovered from each animal ([1]; urine, 24 hours, after PTG-630 IV): 146 ng
excretion rate, times lower than PTG-630 ([1]; urine, after PTG-630 IV): 34 times
Estimated IC50 (CYP3A; midazolam, from one-point % inhibition at 10 μM, IC50=[I]*(100−P)/P): — None
P % inhib (CYP3A; substrate midazolam at Km, Inhib Conc. 1.0E−05 M): −4.9%
